How the values were obtained:
[1] = system: root meristem protophloem; test: Protophloem development / CVP2::NLS-VENUS marker in root meristem; format: in vivo, Arabidopsis thaliana; settings: clerk mutant roots, CLE26 treatment; n=18-30 (Fig. 5D)
Source text: Fig. 5. CLERK prevents premature expression of a protophloem marker. (A) Schematic presentation of the protophloem sieve element lineage in the Arabidopsis root meristem. Red asterisk, pericycle cell file; dark-blue asterisk, protophloem sieve element cell file; light-blue asterisk, incipient metaphloem cell file; arrowheads indicate the two periclinal divisions. […] Left: VENUS fluorescence, yellow. Right: overlay of VENUS fluorescence with PI cell wall staining (cyan). Asterisk indicates protophloem sieve element cell file. (D) Quantification of protophloem strand presence/absence in root meristems of a Col-0 wild type or clerk mutant upon CLE26 treatment. Statistically significant differences when compared with mock control are indicated by letters ([…], P<0.001; n=18-30). […] (G) Distance between first detectable CVP2 expression and the quiescent center (QC) in Col-0 wild type and clerk mutants, expressed as cell number. […] (H) Distance between first detectable CVP2 expression and the quiescent center (QC) in Col-0 wild type and clerk mutants, expressed as absolute distance. […] (J) Quantification of cell file number in Col-0 wild type or clerk mutants, counted at the level where protoxylem has differentiated. […] Left: VENUS fluorescence, yellow; Right: overlay of VENUS fluorescence with PI cell wall staining (cyan). […]

BAM3 ectodomain = settings: ref Hazak et al., 2017; cited from earlier work
Source text: The CLE resistance of clerk mutants could be explained through indirect effects, for example on the expression of bona fide CLE receptors, as proposed for crn ([Hazak et al., 2017]). To evaluate this scenario, we focused our efforts on the only identified CLE receptor in the root protophloem so far, the CLE45 receptor BAM3 ([Hazak et al., 2017]; [Kang and Hardtke, 2016]). Introduction of a BAM3::BAM3-CITRINE transgene into clerk mutants did however not reveal any altered BAM3 expression or localization (Fig. S1D). To also test whether CLERK could serve as a co-receptor for BAM3 instead, we obt ...

[2] = system: BAM3 ectodomain with CLERK/At5g63710 ectodomains; test: Analytical size-exclusion chromatography, BAM3 + CLERK/At5g63710 ectodomains; format: binding, Arabidopsis thaliana; settings: 50 µM peptide
Description: Isolation of recombinant proteins and analytical gel filtrations were carried out as described previously ([Hazak et al., 2017]) with small adjustments. The coding sequences for BAM1-ECD (amino acids 20-637), BAM3-ECD (30-651), PXY-ECD (30-647), NIK1-ECD (32-248), NIK2-ECD (33-248), NIK3-ECD (26-238), CLERK-ECD (28-236) and At5G63710-ECD (51-224) were amplified from Arabidopsis thaliana cDNA using PfuX7 polymerase. All ECD-coding sequences were then cloned into a modified pFAST-BAC1 vector (Geneva Biotech) by GIBSON cloning, resulting in the addition of the azurocidin signal peptide sequence to the 5′-end, and of a 2×-STREP-9×HIS tag to the 3′-end of the ECD sequences. These plasmids, after being confirmed by sequencing, were transformed into Escherichia coli DH10MultiBac (Geneva Biotech) followed by the extraction of the resulting bacmids. Transfection of the bacmids into Spodoptera frugiperda Sf9 cells with Profectin (AB Vector) was carried out to produce and amplify the respective virus. Recombinant secreted expression of the proteins was carried out by addition of virus to Trichoplusia ni Tnao38 cells to reach a viral multiplicity of 1 and incubation of the cells for 3 days. […] Concentrations of the pure proteins were assessed by measuring their absorbance at 280 nm (NanoDrop Lite; Thermo Scientific) and subsequent correction with their respective extinction coefficient. […]

RKVPRGPDPIHN [CLE26]
Protophloem development in clerk mutants [1]: maintained protophloem development

RRVRRGSDPIHN [CLE45]
Binding to BAM3 ectodomain (BAM3 ectodomain): high-affinity
Elution of BAM3 ectodomain with CLERK/At5g63710 ectodomains ([2]; Fig. S3A, pH 5.0): elute as monomers
Peptide-induced binding of CLERK and BAM3 ectodomains ([2]; gel filtration, 20 mM citrate (pH 5.0), 150 mM NaCl): did not observe CLE45-induced binding

Source: PMC6001375, “CLERK is a novel receptor kinase required for sensing of root-active CLE peptides in Arabidopsis” (Development (Cambridge, England), 2018)
